The text below walks through data of ChEMBL document CHEMBL1121984 (J Med Chem, 1982).

Each structure is given as a SMILES string. Active and inactive are the calls of the source. The calls are words filed in the database; no cut-off is given here.

Test system in the first assay: not listed separately
Kind of assay: The compound was tested for its emetic activity in dog, activity expressed as potency ratio.
Conditions: not given
It counts as functional.
With `Br.CCCN(CCC)C1Cc2ccc(O)c(O)c2C1` (configuration not stated), the Potency ratio is reported as 1.24.

Turning to `Br.CCN(CC)C1Cc2ccc(O)c(O)c2C1` (configuration not stated), the Potency ratio came to 0.26.

Another assay addresses T1, Dopamine receptor (Bos taurus, UniProt Q95136+P20288). Kind of assay: Inhibitory binding activity against dopamine receptor using [3H]spiperone as the radioligand in striatal tissue of calf brain. It counts as tissue-based, Striatum.
Conditions: not given
In the case of `Br.CN(C)C1Cc2ccc(O)c(O)c2C1` (configuration not stated), the IC50 stood at 91 µM.

In a further assay the test system is Canis familiaris. The assay is described as follows: Effective dose for emetic activity after administration to dog. It counts as functional. The conditions noted are these: Canis lupus familiaris.
With `CN1CCc2cccc3c2[C@H]1Cc1ccc(O)c(O)c1-3` [APOMORPHINE], the ED50 worked out at 0.07 mg/kg.

The species entered for a further assay is Felis catus. Kind of assay: Inhibition of positive chronotropic effect of the cardioaccelerator was determined. In kind it is functional. The conditions noted are these: read-out: ID50 (the source's name).
Consider `CCNC1Cc2ccc(O)c(O)c2C1` (configuration not stated), for which the ED50 was more than 1 µmol/kg.

With `CN1CCc2cccc3c2[C@H]1Cc1ccc(O)c(O)c1-3` [APOMORPHINE], the ED50 is 0.022 µmol/kg.

Turning to `Br.CCCN(CCC)C1Cc2cc(O)c(O)cc2C1`, the ED50 was more than 3 µmol/kg.

Turning to `NCCc1ccc(O)c(O)c1` [DOPAMINE], the ED50 came to 0.105 µmol/kg.

Another assay concerns the target T1, Dopamine receptor. The assay is described as follows: Inhibitory binding activity against dopamine receptor using [3H]ADTN as the radioligand in striatal tissue of calf brain. It counts as tissue-based, Striatum.
Conditions: not given
`Br.CCN(CC)C1Cc2ccc(OC)c(OC)c2C1` (configuration not stated): the IC50 is 1660 µM. This counts as millimolar.

For the molecule `CN1C[C@H](CC#N)C[C@@H]2c3cccc4[nH]c(Cl)c(c34)C[C@H]21` [LERGOTRILE], the IC50 turned out to be 4.5 µM.

Take `Br.CCCN(CCC)C1Cc2ccc(O)c(O)c2C1` (configuration not stated): the IC50 came out at 10 µM.

The molecule `Br.CCCN(CCC)C1Cc2cc(O)c(O)cc2C1` had an IC50 of 412 µM.

In the case of `Br.CN(C)C1Cc2cc(O)c(O)cc2C1`, the IC50 worked out at 6 µM.

As to `CCCNC1Cc2ccc(OC)c(OC)c2C1.Cl` (configuration not stated), the IC50 came to 51000 µM.

Regarding `Br.CCN(CC)C1Cc2ccc(O)c(O)c2C1` (configuration not stated), the IC50 was found to be 39 µM.

Molecule `COc1cc2c(cc1OC)CC(N(C)C)C2.Cl` gave an IC50 of 400 µM.

In turn, `COc1ccc2c(c1OC)CC(N(C)C)C2` (configuration not stated) registered an IC50 of 2300 µM.

The subject of a further assay is Felis catus. Kind of assay: Inhibition of the positive chronotropic effect of stimulation of the cardioaccelerator nerve in the anesthetized cat. It counts as functional, organism-based.
Conditions: not given
On to `Br.CN(C)C1Cc2ccc(O)c(O)c2C1` (configuration not stated), for which the ID50 entry is “Increased heart rate”.

For `Br.CCN(CC)C1Cc2cc(O)c(O)cc2C1`, the ID50 result is on record as “Increased heart rate”.

Consider `CNC1Cc2cc(O)c(O)cc2C1`, for which the ID50 result is recorded as “Increased heart rate at 3umol/kg”.

For `COc1cc2c(cc1OC)CC(NC(C)C)C2`, the ID50 result is “inactive”.

For the molecule `Br.CCN(CC)C1Cc2ccc(OC)c(OC)c2C1` (configuration not stated), the ID50 entry was “inactive”.

For `COc1ccc2c(c1OC)CC(NC(C)C)C2` (configuration not stated), the ID50 entry was “inactive”.

Regarding `CC(C)N(C)C1Cc2cc(O)c(O)cc2C1`, the ID50 entry was “Increased heart rate at 3umol/kg”.

Turning to `CCCN(CCC)C1Cc2cc(OC)c(OC)cc2C1.Cl`, the ID50 entry is “inactive”.

For `CNC1Cc2cc(OC)c(OC)cc2C1`, the ID50 entry was “inactive”.

Regarding `Br.CN(C)C1Cc2cc(O)c(O)cc2C1`, the ID50 entry is reported as “Increased heart rate”.

With `CCCNC1Cc2ccc(OC)c(OC)c2C1.Cl` (configuration not stated), the ID50 entry is “inactive”.

Regarding `COc1cc2c(cc1OC)CC(N(C)C(C)C)C2`, the ID50 entry is “inactive”.

On to `COc1ccc2c(c1OC)CC(N)C2` (configuration not stated), for which the ID50 result is “inactive”.

Consider `NC1Cc2cc(O)c(O)cc2C1`, for which the ID50 entry is on record as “Increased heart rate at 3umol/kg”.

On to `COc1cc2c(cc1OC)CC(N)C2`, for which the ID50 entry was “inactive”.

For `CC(C)NC1Cc2ccc(O)c(O)c2C1` (configuration not stated), the ID50 entry is “inactive”.

`CC(C)NC1Cc2cc(O)c(O)cc2C1`: the ID50 result was “Increased heart rate at 3umol/kg”.

For `NC1Cc2ccc(O)c(O)c2C1` (configuration not stated), the ID50 result was “Increased heart rate at 3umol/kg”.

`COc1cc2c(cc1OC)CC(N(C)C)C2.Cl`: the ID50 result was “inactive”.

As to `CNC1Cc2ccc(O)c(O)c2C1` (configuration not stated), the ID50 entry was “Increased heart rate at 3umol/kg”.

Consider `CCN(CC)C1Cc2cc(OC)c(OC)cc2C1`, for which the ID50 entry was “inactive”.

With `CCNC1Cc2ccc(OC)c(OC)c2C1` (configuration not stated), the ID50 result is “inactive”.

Turning to `CNC1Cc2ccc(OC)c(OC)c2C1` (configuration not stated), the ID50 entry was “inactive”.

With `COc1ccc2c(c1OC)CC(N(C)C)C2` (configuration not stated), the ID50 entry is “inactive”.

For the molecule `CCCNC1Cc2ccc(O)c(O)c2C1` (configuration not stated), the ID50 result was “inactive”.

Another assay deals with Felis catus. The assay is described as follows: The compounds were evaluated for their ability to inhibit the positive chronotropic effect of stimulation of the cardioaccelerator nerve in the anesthetized cat. It counts as functional. The following applies: read-out: ID50 (the source's name).
In the case of `CN1C[C@H](CC#N)C[C@@H]2c3cccc4[nH]c(Cl)c(c34)C[C@H]21` [LERGOTRILE], the ED50 came to 0.27 µmol/kg.

The next assay deals with T1, Dopamine receptor. Kind of assay: Inhibitory binding activity against dopamine receptor using [3H]ADTN as the radioligand in striatal tissue of calf brain. In kind it is tissue-based, Striatum.
Conditions: not given
For the molecule `Br.CN(C)C1Cc2ccc(O)c(O)c2C1` (configuration not stated), the IC50 worked out at 10 µM.

Another assay deals with T1, Dopamine receptor. The assay is described as follows: Inhibitory binding activity against dopamine receptor using [3H]spiperone as the radioligand in striatal tissue of calf brain.
Conditions: not given
It counts as tissue-based, Striatum.
On to `Br.CCN(CC)C1Cc2cc(O)c(O)cc2C1`, for which the IC50 came to 246 µM.

`Br.CCN(CC)C1Cc2ccc(OC)c(OC)c2C1` (configuration not stated) had an IC50 of 29 µM.

In the case of `CN1C[C@H](CC#N)C[C@@H]2c3cccc4[nH]c(Cl)c(c34)C[C@H]21` [LERGOTRILE], the IC50 was determined as 23.7 µM.

Turning to `Br.CCCN(CCC)C1Cc2ccc(O)c(O)c2C1` (configuration not stated), the IC50 amounted to 53.86 µM.

Molecule `CCCN(CCC)C1Cc2cc(OC)c(OC)cc2C1.Cl` came in with an IC50 of 10.4 µM.

As for `Br.CCCN(CCC)C1Cc2cc(O)c(O)cc2C1`, the IC50 was found to be 17.6 µM.

For `Br.CN(C)C1Cc2cc(O)c(O)cc2C1`, the IC50 was 104 µM.

On to `CCCNC1Cc2ccc(OC)c(OC)c2C1.Cl` (configuration not stated), for which the IC50 turned out to be 105 µM. The IC50 values of the last two molecules are within 1.5-fold of each other.

`Br.CCN(CC)C1Cc2ccc(O)c(O)c2C1` (configuration not stated) registered an IC50 of 220 µM.

Turning to `COc1cc2c(cc1OC)CC(N(C)C)C2.Cl`, the IC50 was 50 µM.

Take `COc1ccc2c(c1OC)CC(N(C)C)C2` (configuration not stated): the IC50 came out at 100 µM. This IC50 is about 2-fold higher than that of the molecule before.

The next assay is filed under the species Felis catus. Kind of assay: The compound was evaluated for its ability to inhibit the positive chronotropic effect of the cardioaccelerator. It counts as functional. The following applies: read-out: ID50 (the source's name).
For `Br.CCCN(CCC)C1Cc2ccc(O)c(O)c2C1` (configuration not stated), the ED50 was found to be 0.02 µmol/kg.

Turning to `Br.CCN(CC)C1Cc2ccc(O)c(O)c2C1` (configuration not stated), the ED50 worked out at 0.05 µmol/kg.
